Results on one compound are retold here after patent US7125662B2, “Method of identifying putative antibiotic resistance genes” (priority 2000, dated 2006).

The subject of experiment [1] is host expressing Citrobacter freundii ampC gene LAT3. The experiment is described as follows: MIC conferred by ampC gene LAT3 cloned into common vector. Format: cell-based. From the text:
(§1) The plasmid-borne ampC genes shown in Table 1 (below) have been cloned into a common vector to ensure that all genes are expressed at the same level. […] That is completely expected because those genes were isolated from clinical samples and identified on the basis of conferring resistance to clinical drugs. ampC genes from two strains of Citrobacter freundii that were isolated in the 1920's, in the pre-antibiotic era, were also cloned into the same vector.

Another experiment has as its system No Plasmid host. The experiment is described as follows: MIC, host with no plasmid (Table 1). It counts as cell-based. From the text:
(§2) The plasmid-borne ampC genes shown in Table 1 (below) have been cloned into a common vector to ensure that all genes are expressed at the same level.

For experiment [2] the following is noted: Table 1, β-lactams; unit assumed; cited from earlier work.
For experiment [3], the system named is host expressing Citrobacter freundii ampC gene LAT4. The experiment is described as follows: MIC conferred by ampC gene LAT4 cloned into common vector. It counts as cell-based.
Description: as §1

The test system of experiment [4] is host expressing Citrobacter freundii ampC gene Cfre8454. The experiment can be described thus: MIC conferred by ampC gene Cfre8454 cloned into common vector. It counts as cell-based. The following applies: Cfre 8454, gene from organism isolated in the 1920's.
Description: as §1

The next experiment concerns E. coli K12 ampC. The following applies: gene cloned into a plasmid, effective promoter; cited from earlier work.
The subject of experiment [5] is host expressing Citrobacter freundii ampC gene LAT1. The experiment can be described thus: MIC conferred by ampC gene LAT1 cloned into common vector. It counts as cell-based.
Description: as §1

The subject of experiment [6] is host expressing Citrobacter freundii ampC gene LAT2. The experiment is described as follows: MIC conferred by ampC gene LAT2 cloned into common vector. It counts as cell-based.
Description: as §1

In experiment [7] the test system is plasmid-borne ampC genes CMY-2, CMY-3b, LAT-1, LAT-2, LAT-3, and LAT-4. The experiment can be described thus: Clinical resistance conferred by plasmid-borne ampC genes as a group. It counts as cell-based, Citrobacter freundii. The following applies: all of CMY-2, CMY-3b, LAT-1, LAT-2, LAT-3, LAT-4.
Description: as §2

Experiment [8] deals with host expressing Citrobacter freundii ampC gene CMY3b. The experiment can be described thus: MIC conferred by ampC gene CMY3b cloned into common vector. It counts as cell-based.
Description: as §1

The test system of experiment [9] is host expressing Citrobacter freundii ampC gene Cfre6879. The experiment can be described thus: MIC conferred by ampC gene Cfre6879 cloned into common vector. Format: cell-based. The following applies: Cfre 6879, gene from organism isolated in the 1920's.
Description: as §1

Experiment [10] has as its system host expressing Citrobacter freundii ampC gene CMY2. The experiment can be described thus: MIC conferred by ampC gene CMY2 cloned into common vector. It counts as cell-based.
Description: as §1

For `CC(=O)OCC1=C(C(=O)O)N2C(=O)[C@@H](NC(=O)Cc3cccs3)[C@H]2SC1` [Cephalothin], the “Minimum Inhibitory Concentration (MIC)” value came to 2048 in experiment [1]; 4 in the experiment with No Plasmid host; 4096 in experiment [3]; 2048 in experiment [4]; 4096 in experiment [5]; 4096 in [6]. Also, the “Minimum Inhibitory Concentration (MIC)” value is 2048 in [8], 1024 in [9] and 1024 in [10]. In experiment [2], the Clin. = the MIC for clinical resistance was 32 mg/L. For the same compound, the figures for the clinical resistance conferred result (with E. coli K12 ampC; in [7]) were “confers clinical resistance” and “confer clinical resistance”, respectively.
